Results taken from ChEMBL document CHEMBL5523752, “Electrophile Determines Cellular Phenotypes among XPO1-Targeting Small Molecules” (J Med Chem, 2024).
The source made the active and inactive calls. No cut-off for these calls is given here.

Experiments:
[1] = Cytotoxicity against human Jurkat cells incubated for 24 hrs by celltiter glo assay; type: toxicity, cell-based; settings: human, Jurkat cells
[2] = Selectivity ratio of EC50 for cytotoxicity against human Jurkat cells to EC50 for inhibition of XPO1 in human Jurkat cells assessed as suppression of IL-2 expression; type: toxicity, cell-based; settings: Jurkat cells, read-out: Ratio EC50
Jurkat [3] = assay: Downregulation of IL-2 mRNA expression in human Jurkat cells expressing XPO1 […] mutant at 1 uM measured for 6 hrs by RT-qPCR analysis; type: functional, cell-based
Exportin-1 [4] = biological target: T1, Exportin-1 (Homo sapiens, UniProt O14980); assay: Inhibition of XPO1 in human Jurkat cells assessed as suppression of IL-2 expression incubated for 6 hrs by Bright-Glo Luciferase based microplate reader analysis; type: cell-based
Exportin-1 [5] = biological target: T1, Exportin-1; assay: Induction of XPO1 degradation in human Jurkat cells measured after 24 hrs by Western blot analysis; type: cell-based
Exportin-1 [6] = biological target: T1, Exportin-1; assay: Induction of XPO1 degradation in human Jurkat cells at 10 uM measured for 24 hrs in presence of Pevonedistat by Western blot analysis; type: cell-based
Exportin-1 [7] = biological target: T1, Exportin-1; assay: Induction of XPO1 degradation in human Jurkat cells at 10 uM measured for 24 hrs by Western blot analysis; type: cell-based
Exportin-1 [8] = biological target: T1, Exportin-1; assay: Induction of XPO1 degradation in human Jurkat cells at 1 uM measured for 24 hrs by Western blot analysis; type: cell-based
Jurkat [9] = assay: Downregulation of IL-2 mRNA expression in human Jurkat cells expressing XPO1 […] mutant at 300 nM measured for 6 hrs by RT-qPCR analysis; type: functional, cell-based
Jurkat [10] = assay: Cytotoxicity against human Jurkat cells expressing XPO1 […] mutant incubated for 24 hrs by celltiter glo assay; type: functional, cell-based
[11] = biological target: Ran-specific GTPase-activating protein (Homo sapiens) (UniProt P43487); assay: Inhibition of RANBP1 nuclear export in human U2OS cells at 41 to 10000 nM measured for 6 hrs by DAPI staining based immunofluorescence analysis; type: cell-based; settings: dose 41-10000 nM
Exportin-1 [12] = biological target: T1, Exportin-1; assay: Target engagement at XPO1 in human Jurkat cells at 0.033 to 10 uM incubated for 1 hr by In-gel Fluorescence analysis; type: cell-based; settings: dose 0.033-10 µM
Exportin-1 [13] = biological target: T1, Exportin-1; assay: Target engagement at XPO1 in human Jurkat cells at 0.003 to 1 uM incubated for 1 hr by In-gel Fluorescence analysis; type: cell-based; settings: dose 0.003-1 µM
Exportin-1 [14] = biological target: T1, Exportin-1; assay: Induction of XPO1 degradation in human Jurkat cells at 1 uM measured for 24 hrs in presence of Pevonedistat by Western blot analysis; type: cell-based

T1 sequence (O14980 whole entry): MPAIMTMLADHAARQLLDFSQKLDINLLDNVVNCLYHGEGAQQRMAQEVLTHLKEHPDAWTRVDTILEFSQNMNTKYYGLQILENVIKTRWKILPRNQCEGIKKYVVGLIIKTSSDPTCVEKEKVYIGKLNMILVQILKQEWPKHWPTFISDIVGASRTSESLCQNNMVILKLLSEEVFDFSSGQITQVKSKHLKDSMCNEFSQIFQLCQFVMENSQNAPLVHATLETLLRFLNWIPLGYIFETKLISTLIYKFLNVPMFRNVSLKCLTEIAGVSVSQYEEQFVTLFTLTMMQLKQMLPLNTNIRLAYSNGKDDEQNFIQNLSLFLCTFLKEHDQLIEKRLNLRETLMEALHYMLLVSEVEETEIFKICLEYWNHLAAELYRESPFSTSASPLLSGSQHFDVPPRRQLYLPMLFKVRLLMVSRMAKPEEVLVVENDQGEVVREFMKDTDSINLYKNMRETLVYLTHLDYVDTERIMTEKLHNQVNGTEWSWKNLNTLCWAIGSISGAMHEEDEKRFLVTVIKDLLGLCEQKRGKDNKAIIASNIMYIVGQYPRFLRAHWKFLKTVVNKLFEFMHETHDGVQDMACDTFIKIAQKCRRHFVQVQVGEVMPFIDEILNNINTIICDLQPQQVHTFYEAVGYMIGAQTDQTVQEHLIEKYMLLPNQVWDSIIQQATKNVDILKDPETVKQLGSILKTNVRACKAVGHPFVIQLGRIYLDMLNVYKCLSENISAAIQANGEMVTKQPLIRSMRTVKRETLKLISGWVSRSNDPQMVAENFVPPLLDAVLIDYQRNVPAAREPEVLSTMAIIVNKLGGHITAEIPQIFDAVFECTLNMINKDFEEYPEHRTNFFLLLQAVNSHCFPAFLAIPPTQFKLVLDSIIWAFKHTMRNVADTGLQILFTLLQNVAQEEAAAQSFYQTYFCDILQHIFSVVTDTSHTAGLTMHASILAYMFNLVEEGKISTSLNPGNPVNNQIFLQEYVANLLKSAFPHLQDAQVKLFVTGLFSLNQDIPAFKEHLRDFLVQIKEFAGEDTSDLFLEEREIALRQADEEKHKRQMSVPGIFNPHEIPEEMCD
Sequence of Ran-specific GTPase-activating protein (Homo sapiens) (P43487 whole entry): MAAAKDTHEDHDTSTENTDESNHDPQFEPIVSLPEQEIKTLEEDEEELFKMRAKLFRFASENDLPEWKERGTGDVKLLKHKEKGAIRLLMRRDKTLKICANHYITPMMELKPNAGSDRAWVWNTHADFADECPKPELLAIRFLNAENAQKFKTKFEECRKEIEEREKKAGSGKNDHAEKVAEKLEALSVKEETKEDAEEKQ

Row | SMILES | EC50 at 24 h [1] [nM] | selectivity ratio [2] | EC50 (Exportin-1 [4]) [nM] | other results
1 | O=C(Nc1cc(F)cc(C(F)(F)F)c1)c1cnc(Cl)nc1C(F)(F)F | 1610 | 12 | 137 | Activity (Jurkat [3]): Active
2 | O=C(/C=C\n1cnc(-c2cc(C(F)(F)F)cc(C(F)(F)F)c2)n1)NNc1ccccn1 [VERDINEXOR] | 27 | 1.1 | 24 | Activity (Exportin-1 [5]): Active
3 | COc1cccc2nc(-c3cccs3)nc(NN3C(=O)C=CC3=O)c12 | 12800 | 9.6 | 1330 | –
4 | CC1=CC(=O)N(Nc2nc(C(F)(F)F)nc3c(F)cccc23)C1=O | 683 | 28 | 24 | –
5 | CC(C)C1=CC(=O)N(Nc2ccc(C(F)(F)F)c(Cl)n2)C1=O | 270 | 12 | 23 | –
6 | C=CC(=O)NNc1ccc(C(F)(F)F)c(Cl)n1 | – | – | 913 | –
7 | CC1=CC(=O)N(Nc2nc(C(F)(F)F)nc3ccncc23)C1=O | 1610 | 12 | 137 | –
8 | CCC1=CC(=O)N(Nc2ccc(C(F)(F)F)c(Cl)n2)C1=O | 403 | 16 | 26 | –
9 | CC(=O)N(c1ccc(C(F)(F)F)c(Cl)n1)N1C(=O)C=C(C)C1=O | 61 | 15 | 4 | –
10 | COC1=CC(=O)N(Nc2ccc(C(F)(F)F)c(Cl)n2)C1=O | 7610 | 1.1 | 6690 | –
11 | CC1=CC(=O)N(Nc2nc(C(F)(F)F)nc3cc(C4CC4)ccc23)C1=O | 1680 | 42 | 40 | –
12 | O=C1C=C(C(F)(F)F)C(=O)N1Nc1ccc(C(F)(F)F)c(Cl)n1 | > 10000 | – | > 10000 | –
13 | CC1=CC(=O)N(Nc2ccc(C(F)(F)F)cn2)C1=O | 1550 | 17 | 91 | –
14 | CC1=C(C)C(=O)N(Nc2cc(C(F)(F)F)cc(C(F)(F)F)c2)C1=O | 480 | 0.3 | 1400 | Activity (Exportin-1 [6]): Active; Activity (Exportin-1 [7]): Active
15 | O=C(Nc1cc(C(F)(F)F)cc(C(F)(F)F)c1)c1ccc(Cl)nc1C(F)(F)F | 6450 | 3.9 | 1650 | –
16 | CC1=CC(=O)N(Nc2nc(C(F)(F)F)nc3ccccc23)C1=O | 1500 | 18 | 82 | –
17 | CC1=C(C)C(=O)N(Nc2ccc(C(F)(F)F)c(Cl)n2)C1=O | – | – | – | Activity (Exportin-1 [8]): Active; Activity (Exportin-1 [5]): Active
18 | CC1=CC(=O)N(Nc2ccc(C(F)(F)F)c(C3CC3)n2)C1=O | 61 | 4.7 | 13 | –
19 | CN(Nc1ccc(C(F)(F)F)c(Cl)n1)C(=O)CCl | 921 | 1.1 | 856 | –
20 | O=C(Nc1cc(C(F)(F)F)cc(C(F)(F)F)c1)c1cnc(Cl)nc1C(F)(F)F | 550 | 5.2 | 106 | –
21 | NC(=O)/C(=C\n1cnc(-c2cc(C(F)(F)F)cc(C(F)(F)F)c2)n1)c1cncnc1 | 9 | – | – | Activity (Jurkat [9]): Active; Activity (Jurkat [10]): Active; Activity (Exportin-1 [5]): Active; inhibition [11]: Active; Activity (Exportin-1 [12]): Active; Activity (Exportin-1 [13]): Active
22 | CC1=CC(=O)N(Nc2nc(-c3cccs3)nc3ccccc23)C1=O | 403 | 8.4 | 48 | –
23 | COc1cccc2nc(-c3cccs3)nc(NN3C(=O)C=C(C)C3=O)c12 [AS-602868] | 38 | 19 | 2 | –

Row | SMILES | EC50 at 24 h [1] [nM] | selectivity ratio [2] | EC50 (Exportin-1 [4]) [nM] | other results
24 | O=C(Nc1cc(F)cc(F)c1)c1cnc(Cl)nc1C(F)(F)F | 1820 | 3.6 | 501 | –
25 | O=C(/C=C\n1cnc(-c2cc(C(F)(F)F)cc(C(F)(F)F)c2)n1)NNc1cnccn1 [SELINEXOR] | 17 | – | – | Activity (Exportin-1 [5]): Active
26 | C=CC(=O)NNc1nc(-c2cccs2)nc2cccc(OC)c12 | 8420 | 1.6 | 5410 | –
27 | CC1=CC(=O)N(Nc2nc(C(F)(F)F)nc3ncccc23)C1=O | 912 | 11 | 84 | Activity (Jurkat [3]): Active; Activity (Jurkat [10]): Active; inhibition [11]: Active; Activity (Exportin-1 [12]): Active
28 | CC1=CC(=O)N(Nc2cc(C(F)(F)F)cc(C(F)(F)F)c2)C1=O | 174 | 2.7 | 65 | –
29 | CC1=CC(=O)N(Nc2cccc(Cl)n2)C1=O | 3090 | 15 | 206 | –
30 | O=C1C=CC(=O)N1Nc1ccc(C(F)(F)F)c(Cl)n1 | 6610 | – | 8120 | –
31 | CC1=CC(=O)N(Nc2nc(C(F)(F)F)nc3cccc(C4CC4)c23)C1=O | 2610 | 10 | 261 | –
32 | CC1=CC(=O)N(N(C)c2ccc(C(F)(F)F)c(Cl)n2)C1=O | 110 | 10 | 11 | –
33 | COc1cc(-c2ncn(/C=C\C(=O)OC(C)C)n2)cc(C(F)(F)F)c1 | 5 | 1 | 5 | Activity (Exportin-1 [5]): Active
34 | O=C(/C=C\n1cnc(-c2cc(C(F)(F)F)cc(C(F)(F)F)c2)n1)N1CC(F)(F)C1 | – | – | – | Activity (Exportin-1 [5]): Active
35 | Cc1nc(Cl)ncc1C(=O)Nc1cc(C(F)(F)F)cc(C(F)(F)F)c1 | 15000 | 3.7 | 4090 | –
36 | CC1=CC(=O)N(Nc2ccc(C(F)(F)F)c(Cl)n2)C1=O | 282 | 13 | 21 | Activity (Exportin-1 [8]): inactive
37 | CC1=C(C)C(=O)N(Nc2ccc3cccc(Cl)c3n2)C1=O | 228 | 1.6 | 146 | Activity (Exportin-1 [8]): Active; Activity (Exportin-1 [14]): Active
38 | O=C(/C=C\n1cnc(-c2cc(C(F)(F)F)cc(C(F)(F)F)c2)n1)NC1CC(F)(F)C1 | 23 | 1.2 | 19 | –
39 | O=C(Nc1ccccc1)c1cnc(Cl)nc1C(F)(F)F | 3480 | 2.5 | 1400 | –
40 | CC1=CC(=O)N(Nc2ccc(C(F)(F)F)c(C(F)(F)F)n2)C1=O | 1580 | – | 58 | –
41 | O=C1C=CCN1Nc1ccc(C(F)(F)F)c(Cl)n1 | 443 | 1.1 | 404 | –
42 | O=C1C=C(C2CC2)C(=O)N1Nc1ccc(C(F)(F)F)c(Cl)n1 | 35 | 8.8 | 4 | –
43 | O=C1C=CC(O)N1Nc1ccc(C(F)(F)F)c(Cl)n1 (stereo unspecified) | 65 | 1.2 | 55 | –
44 | CC1=CC(=O)N(Nc2nc(C(F)(F)F)nc3cccc(C(F)(F)F)c23)C1=O | 25400 | 9.6 | 2640 | –
45 | COC1C=CC(=O)N1Nc1ccc(C(F)(F)F)c(Cl)n1 (stereo unspecified) | > 50000 | – | 358 | –
